Active and inactive are the calls of the source.
Experiments:
[1] = biological target: T1, Trace amine-associated receptor 1 (Homo sapiens, UniProt Q96RJ0); assay: Fluorescence-based cell-based high throughput dose response assay to identify agonists of the human trace amine associated receptor 1 (TAAR1).; format: functional
T1 sequence (Q96RJ0 whole entry): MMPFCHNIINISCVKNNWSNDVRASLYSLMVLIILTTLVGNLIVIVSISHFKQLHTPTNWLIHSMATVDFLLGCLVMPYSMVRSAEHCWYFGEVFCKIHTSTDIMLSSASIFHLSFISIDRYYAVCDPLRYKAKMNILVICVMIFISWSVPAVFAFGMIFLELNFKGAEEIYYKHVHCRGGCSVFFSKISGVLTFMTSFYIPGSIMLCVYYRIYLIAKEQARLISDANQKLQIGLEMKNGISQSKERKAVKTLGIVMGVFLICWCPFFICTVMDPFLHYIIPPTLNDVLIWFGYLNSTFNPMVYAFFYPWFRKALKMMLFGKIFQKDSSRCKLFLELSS

[2] = biological target: T1, Trace amine-associated receptor 1; assay: Counterscreen for agonists of the human trace amine associated receptor 1 (hTAAR1): Fluorescence-based cell-based high throughput dose response assay to identify hTAAR1 agonist that also desensitize TAAR1 receptor response.; format: functional
[3] = cells; format: functional, cell-based
[4] = cells; format: functional, cell-based; remark: listed apart in the source
[5] = blockers of HIV-1 envelope-mediated cell-cell fusion – cherry-pick, dose response (AID 652057); format: functional, cell-based
[6] = HIV-1 AD8 envelope cell-cell fusion blockers – cherry-pick, dose response (AID 652062); format: functional, cell-based;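 further: luciferase signal from cell-cell fusion driven by HIV-1 clade B AD8 Env; potency is for inhibitors of fusion seen as a drop in luminescence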
[7] = viability loss in CEM21 cells – cell-based, CellTiter-Glo luminescence, cherry-picked, cytotoxicity control for viral fusion inhibitor project, dose response (AID 652042); format: functional;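 further: potency for signal decrease meaning cytotoxicity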
[8] = blockers of HIV-1 ZM109 envelope-driven cell-cell fusion – HeLa effector, CEM target cells, luciferase, cherry-pick, dose response (AID 652058); format: functional, cell-based;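 further: luciferase signal from HIV-1 Env mediated cell-cell fusion of effector and target cells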
[9] = Counterscreen for […] of the human trace amine associated receptor 1 (TAAR1): Fluorescence-based cell-based high throughput dose response assay to identify nonselective Ga16 agonists.; format: functional
[10] = biological target: T1, Trace amine-associated receptor 1; assay: Counterscreen for antagonists of the human trace amine associated receptor 1 (hTAAR1): Fluorescence-based cell-based high throughput dose response assay to identify TAAR1 Agonists.; format: functional
[11] = biological target: T1, Trace amine-associated receptor 1; assay: Fluorescence-based cell-based high throughput dose response assay to identify antagonists of the human trace amine associated receptor 1 (TAAR1).; format: functional
[12] = Counterscreen for antagonists of the human trace amine associated receptor 1 (hTAAR1): Fluorescence-based cell-based high throughput dose response assay to identify nonselective Ga16 antagonists.; format: functional
[13] = test system: HepG2; assay: HepG2 Cytotoxicity Assay Measured in Cell-Based System Using Plate Reader - 7071-02_Inhibitor_Dose_CherryPick_Activity.; format: functional; settings: Homo sapiens
[14] = test system: Cryptococcus neoformans; assay: PubChem AID 686997; format: functional, organism-based
[15] = test system: HeLa; assay: viability loss in HeLa cells – cell-based, ATP luminescence, cherry-pick samples, cytotoxicity control, dose response (AID 687004); format: functional; settings: Homo sapiens
[16] = EF1alpha-driven Renilla reporter with control 3'UTR suppression – Clone20-Shn3RL cells, dual-Glo, cherry-pick, set 2, counter-screen for Shn3 3'UTR targeting project, dose response (AID 720724); format: functional, cell-based; settings: Dual-Go Shn3RL
[17] = Shn3 3'UTR reporter signal decrease – cell-based, Clone20 osteoblasts, firefly luciferase, cherry-pick, set 2, Schnurri-3 inhibitor project, dose response (AID 720490); format: functional;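 further: actives lower the luminescence signal as inhibitors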
[18] = non-specific 3'UTR reporter inhibition in Clone20-Shn3RL – cell-based, Renilla luciferase, cherry-picked, counter-screen for Shn3 inhibitor project, dose response (AID 624133); format: functional
[19] = reduction of Shn3 3'UTR-driven luciferase in osteoblasts – cell-based, Clone20 osteoblasts, firefly luciferase, cherry-picked, dose response (AID 624132); format: functional;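 further: firefly luciferase luminescence from reporter carrying the Shn3 3'UTR in osteoblasts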
[20] = loss of viability in HepG2 cells – cell-based, CellTiter-Glo, cherry-picked, cytotoxicity control for Shn3 inhibitor project, dose response (AID 624134); format: functional

Question: With `CCC(C)(C)n1nnnc1C(c1ccc(O)cc1)N1CCc2ccccc2C1` (stereo not given) as the compound, how does the EC50 [1] read?
Answer: 0.333 µM (active)

Question: What about the IC50 [2] of the same compound?
Answer: 1.26 µM (active)

Question: What about the EC50 [3] of the same compound?
Answer: > 29.9 µM (inactive)

Question: And the IC50 [4]?
Answer: > 29.9 µM (inactive)

Question: For `Cc1nc2ccc(NC(=O)c3ccc(Cl)c(S(=O)(=O)N(C)c4ccccc4)c3)cc2s1`, which AC50 [5] is on record?
Answer: 35.5 µM (active)

Question: And the AC50 [6]?
Answer: 3.19 µM (active)

Question: And the AC50 [7]?
Answer: 58.6 µM (active)

Question: What about the AC50 [8] of the same compound?
Answer: 3.88 µM (active)

Question: With `CCNC(=S)N/N=C/c1cc(C)n(-c2ccc(Cl)cc2)c1C` as the compound, how does the EC50 [9] read?
Answer: > 29.9 µM (inactive)

Question: And the EC50 [10]?
Answer: 13.6 µM (inactive)

Question: What about the IC50 [11] of the same compound?
Answer: 1.13 µM (active)

Question: And the IC50 [12]?
Answer: > 29.9 µM (inactive)

Question: Which AC50 [13] does the source give for `CCOC(=O)NC(=S)Nc1ccc(C(C)(C)C)cc1Br` here?
Answer: 18.1 µM (active)

Question: And the AC50 [14]?
Answer: > 70 µM (inactive)

Question: What about the AC50 [15] of the same compound?
Answer: > 52 µM (inactive)

Question: What does the source list for `Cc1nc(NC(C)c2ccccc2)c2oc3ccccc3c2n1` (stereo not given)?
Answer: AC50 [16]: 46.5 µM (active); AC50 [17]: 3.44 µM (active); AC50 [18]: 24 µM (active); AC50 [19]: 3.06 µM (active); AC50 [20]: 35.1 µM (active)

Source: ChEMBL document CHEMBL1201862, “PubChem BioAssay data set” (2004)
